Reference: patent US20130079749A1, “Modular Drug Delivery System for Minimizing Trauma During and After Insertion of a Cochlear Lead” (ADVANCED BIONICS, LLC, priority 2007, published 2013)

How the values were obtained:
[1] = tested on: auditory hair cells; test: Organ of Corti photomicrographs thirty days after electrode insertion trauma; format: in vivo, guinea pig; conditions: lower middle turn of cochlea, thirty days after EIT, FIG. 11 microphotograph D
From the text: The efficacy of DXMb was also studied by the Applicants in relationship to preserving residual hearing and internal nerve structures within the cochlea. In the study performed by the Applicants, 88 ears of 44 pigmented guinea pigs of 250 to 300 grams were randomly assigned to one of four groups as follows: group 1 corresponded to the contralateral, unoperated ears from groups 2 to 4 animals (n=44). Group 2 (n=15): electrode insertion trauma (EIT); these ears underwent EIT only via a cochleostomy and then immediate closure. Group 3 (n=15): EIT+artificial perilymph (EIT+AP) treated ears received EIT and immediately after trauma, insertion of a microcatheter into the cochleostomy site with AP perfused into the scala tympani (ST) for a period of 8 days. Group 4 (n=14): EIT dexamethasone base (EIT=DXMb) treated animals underwent EIT followed immediately by insertion of a microcatheter into the cochleostomy with ST perfusion of DXMb ([…]) in AP for a period of 8 days. Hearing measurements were performed before surgery, as well as on post-EIT days 0, 3, 7, 14, and 30. Tone bursts of 0.5, 1, 4, and 16 kHz were delivered to the ear at a rate of 29 Hz. The intensity of the stimulation was decreased by 10 dB sound pressure level (SPL) decrements until no auditory brainstem response was identified.
The organization of hair cells is in three distinct rows. […]

[2] = In-vivo comparison of DXMb and DEX salt delivered over a week
Protocol: In one study performed by the Applicants, a comparison of DXMb and DEX salt was performed in an in-vivo model over the prior of a week. […] This surprising potency allows for increased therapeutic effects without increasing the volume of the drug or the size of the intracochlear lead.

[3] = Solubility of dexamethasone forms; format: physicochemical

C[C@@H]1C[C@H]2[C@@H]3CCC4=CC(=O)C=C[C@]4(C)[C@@]3(F)[C@@H](O)C[C@]2(C)[C@@]1(O)C(=O)CO [DXMb, dexamethasone base]
hair cells and hair cell structure [1]: substantially similar to that of the control group
effectiveness compared with DEX salt ([2]; DXMb 1 μL/hr at 70 μL/ml vs DEX salt 100 μL/ml at 1 μL/hr, in-vivo model, one week): just as effective
potency compared with salt forms of dexamethasone ([2]; administered into the intracochlear space after implantation surgeries): surprisingly more potent than salt forms of dexamethasone
solubility in aqueous preparations ([3]; aqueous preparations): limited solubility in aqueous preparations
solubility in organic solvents ([3]; organic solvents): highly soluble in organic solvents
